The values below come from the OligoGym collection.

Oligonucleotides are written 5' to 3', each unit as a sugar letter and its base; * is a phosphorothioate linkage, no mark a phosphodiester; rarer units and linkages stand in square brackets, end groups in braces. Plain capitals give the bases only. d = 2'-deoxy (DNA); r = 2'-OH (RNA)

One series addresses UBE2E3. Kind of series: reporter assay of Huesken 2005. As to conditions: siRNA.
The target of a further series is UBE2G1. Kind of series: reporter assay of Huesken 2005. As to conditions: siRNA.
Further: test concentration or dose not given here.

Take “sense rArArCrUrCrUrCrUrArGrCrArArArArCrCrArCdTdT / antisense rGrUrGrGrUrUrUrUrGrCrUrArGrArGrArGrUrUdTdG”: in the series with UBE2E3, the normalised inhibition (eCFP-eYFP dual reporter) stood at 52.4%.
Still for that read-out and setting: the same measure for “sense rArUrUrCrArGrArArGrGrArGrCrUrArGrCrUrGdTdT / antisense rCrArGrCrUrArGrCrUrCrCrUrUrCrUrGrArArUdTdC”: 42.3%; for “sense rGrGrUrUrUrUrGrCrUrGrUrCrUrArUrUrUrGrUdTdT / antisense rArCrArArArUrArGrArCrArGrCrArArArArCrCdTdT”: 94.8%; for “sense rArArArGrGrUrUrArCrUrUrUrCrCrGrCrArCrCdTdT / antisense rGrGrUrGrCrGrGrArArArGrUrArArCrCrUrUrUdGdG”: 50.7%.
On the same count and under the same terms, the same measure for “sense rArUrCrArCrUrGrCrArArCrArUrCrArArCrArGdTdT / antisense rCrUrGrUrUrGrArUrGrUrUrGrCrArGrUrGrArUdAdG”: 69.7%; for “sense rUrGrArArUrGrGrArGrArUrCrArArCrUrArUrAdTdT / antisense rUrArUrArGrUrUrGrArUrCrUrCrCrArUrUrCrAdTdA”: 90.5%; for “sense rArGrCrCrUrGrArArGrArArCrArArGrArGrGrAdTdT / antisense rUrCrCrUrCrUrUrGrUrUrCrUrUrCrArGrGrCrUdCdT”: 89%.
Still for that read-out and setting: in the case of “sense rArUrArGrCrCrArCrUrCrArGrUrArUrUrUrGrAdTdT / antisense rUrCrArArArUrArCrUrGrArGrUrGrGrCrUrArUdGdC” it was 88.7%; in that of “sense rCrGrArCrArGrGrArUrArGrCrCrArGrArCrArGdTdT / antisense rCrUrGrUrCrUrGrGrCrUrArUrCrCrUrGrUrCrGdTdG”, 78%; in that of “sense rCrCrUrCrCrUrCrCrUrArArUrUrGrCrArGrUrGdTdT / antisense rCrArCrUrGrCrArArUrUrArGrGrArGrGrArGrGdAdT”, 62.6%.
Take “sense rCrArGrUrGrGrCrArGrUrUrCrArGrArUrGrCrGdTdT / antisense rCrGrCrArUrCrUrGrArArCrUrGrCrCrArCrUrGdCdT”: in the series with UBE2E3, the normalised inhibition (eCFP-eYFP dual reporter) worked out at 53%.
Consider “sense rArArArArCrCrUrUrCrUrGrCrCrArCrCrCrArGdTdT / antisense rCrUrGrGrGrUrGrGrCrArGrArArGrGrUrUrUrUdCdT”, for which the normalised inhibition (eCFP-eYFP dual reporter) in the series with UBE2E3 came to 32.1%.
As for “sense rArArUrUrCrArGrArArGrGrArGrCrUrArGrCrUdTdT / antisense rArGrCrUrArGrCrUrCrCrUrUrCrUrGrArArUrUdCdT”, the normalised inhibition (eCFP-eYFP dual reporter) with UBE2E3 turned out to be 71.2%.
Regarding “sense rUrGrCrUrGrUrCrUrArUrUrUrGrUrUrCrCrCrUdTdT / antisense rArGrGrGrArArCrArArArUrArGrArCrArGrCrAdAdA”, in the series with UBE2E3, the normalised inhibition (eCFP-eYFP dual reporter) was determined as 73.4%.
Same read-out and setting: the same measure for “sense rGrGrArGrUrCrArUrCrUrGrUrCrUrGrGrArCrAdTdT / antisense rUrGrUrCrCrArGrArCrArGrArUrGrArCrUrCrCdCdT”: 75.6%; for “sense rArArCrArGrUrCrArGrGrGrArGrUrCrArUrCrUdTdT / antisense rArGrArUrGrArCrUrCrCrCrUrGrArCrUrGrUrUdGdA”: 58.5%.
On the same count and under the same terms, in the case of “sense rCrArCrUrCrArGrUrArUrUrUrGrArCrCrArArCdTdT / antisense rGrUrUrGrGrUrCrArArArUrArCrUrGrArGrUrGdGdC” it was 87.1%.
Same read-out and setting: the same measure for “sense rArGrCrUrGrArArArUrArArCrCrCrUrUrGrArUdTdT / antisense rArUrCrArArGrGrGrUrUrArUrUrUrCrArGrCrUdAdG”: 82%; for “sense rUrUrUrUrGrArCrArGrArCrUrGrCrArArCrCrCdTdT / antisense rGrGrGrUrUrGrCrArGrUrCrUrGrUrCrArArArAdGdG”: 50.3%; for “sense rCrArCrCrArArArCrUrCrUrCrUrArGrCrArArAdTdT / antisense rUrUrUrGrCrUrArGrArGrArGrUrUrUrGrGrUrGdTdT”: 84.2%.
“sense rGrGrArGrUrCrCrCrGrCrUrUrUrGrArCrUrArUdTdT / antisense rArUrArGrUrCrArArArGrCrGrGrGrArCrUrCrCdAdG”: in the series with UBE2E3, the normalised inhibition (eCFP-eYFP dual reporter) was determined as 69.2%.
Same read-out and setting: in the case of “sense rGrUrCrArUrCrUrGrUrCrUrGrGrArCrArUrCrCdTdT / antisense rGrGrArUrGrUrCrCrArGrArCrArGrArUrGrArCdTdC” it was 43.8%; in that of “sense rArUrCrArArCrArGrUrCrArGrGrGrArGrUrCrAdTdT / antisense rUrGrArCrUrCrCrCrUrGrArCrUrGrUrUrGrArUdGdT”, 70.5%.
The same measure, in the same setting: the same measure for “sense rGrGrArUrCrCrUrCrUrGrGrUrUrGrGrArArGrCdTdT / antisense rGrCrUrUrCrCrArArCrCrArGrArGrGrArUrCrCdGdC”: 59.8%.
With “sense rUrGrCrUrArArGrUrUrArUrCrCrArCrUrArGrUdTdT / antisense rArCrUrArGrUrGrGrArUrArArCrUrUrArGrCrAdGdT”, the normalised inhibition (eCFP-eYFP dual reporter) with UBE2E3 is 82.8%.
Same read-out and setting: in the case of “sense rUrArUrUrUrGrUrUrCrCrCrUrUrUrUrGrArCrAdTdT / antisense rUrGrUrCrArArArArGrGrGrArArCrArArArUrAdGdA” it was 45.2%; in that of “sense rCrCrUrUrArArArGrArCrArArCrUrGrGrArGrUdTdT / antisense rArCrUrCrCrArGrUrUrGrUrCrUrUrUrArArGrGdAdT”, 58.9%.
The same measure, in the same setting: in the case of “sense rCrUrCrCrUrArArUrUrGrCrArGrUrGrCrUrGrGdTdT / antisense rCrCrArGrCrArCrUrGrCrArArUrUrArGrGrArGdGdA” it was 51.1%; in that of “sense rCrUrUrGrGrUrCrCrArCrCrGrGrGrUrUrCrUrGdTdT / antisense rCrArGrArArCrCrCrGrGrUrGrGrArCrCrArArGdTdA”, 68.4%.
The same measure, in the same setting: the same measure for “sense rUrCrArGrArUrUrArUrCrCrArUrUrUrArArGrCdTdT / antisense rGrCrUrUrArArArUrGrGrArUrArArUrCrUrGrAdTdG”: 38.2%; for “sense rUrCrArGrGrGrArGrUrCrArUrCrUrGrUrCrUrGdTdT / antisense rCrArGrArCrArGrArUrGrArCrUrCrCrCrUrGrAdCdT”: 49%; for “sense rArUrUrUrGrUrUrCrCrCrUrUrUrUrGrArCrArGdTdT / antisense rCrUrGrUrCrArArArArGrGrGrArArCrArArArUdAdG”: 47.8%.
On to “sense rUrUrCrCrGrCrArCrCrArGrArArUrCrUrArUrCdTdT / antisense rGrArUrArGrArUrUrCrUrGrGrUrGrCrGrGrArAdAdG”, for which the normalised inhibition (eCFP-eYFP dual reporter) with UBE2E3 came out at 42.5%.
On to “sense rUrCrUrCrUrArGrCrArArArArCrCrArCrUrGrCdTdT / antisense rGrCrArGrUrGrGrUrUrUrUrGrCrUrArGrArGrAdGdT”, for which the normalised inhibition (eCFP-eYFP dual reporter) in the series with UBE2E3 was determined as 35.9%.
The same measure, in the same setting: in the case of “sense rGrCrArArCrArUrCrArArCrArGrUrCrArGrGrGdTdT / antisense rCrCrCrUrGrArCrUrGrUrUrGrArUrGrUrUrGrCdAdG” it was 66.1%; in that of “sense rArArGrGrArGrArUrArArCrArUrUrUrArUrGrAdTdT / antisense rUrCrArUrArArArUrGrUrUrArUrCrUrCrCrUrUdTdA”, 52%.
“sense rCrGrCrArCrCrArGrArArUrCrUrArUrCrArCrUdTdT / antisense rArGrUrGrArUrArGrArUrUrCrUrGrGrUrGrCrGdGdA”: in the series with UBE2E3, the normalised inhibition (eCFP-eYFP dual reporter) was 73.4%.
On the same count and under the same terms, in the case of “sense rArUrCrArArCrUrArUrArCrUrUrGrGrUrCrCrAdTdT / antisense rUrGrGrArCrCrArArGrUrArUrArGrUrUrGrArUdCdT” it was 59.5%.
The same measure, in the same setting: the same measure for “sense rArCrUrGrCrArArCrCrCrUrGrCrGrGrArUrCrCdTdT / antisense rGrGrArUrCrCrGrCrArGrGrGrUrUrGrCrArGrUdCdT”: 71.1%; for “sense rCrArArArGrGrUrUrUrUrGrCrUrGrUrCrUrArUdTdT / antisense rArUrArGrArCrArGrCrArArArArCrCrUrUrUrGdAdA”: 92.4%; for “sense rGrGrUrUrArCrUrUrUrCrCrGrCrArCrCrArGrAdTdT / antisense rUrCrUrGrGrUrGrCrGrGrArArArGrUrArArCrCdTdT”: 91.4%.
Same read-out and setting: the same measure for “sense rCrUrGrUrArUrArUrGrArArGrGrUrGrGrUrGrUdTdT / antisense rArCrArCrCrArCrCrUrUrCrArUrArUrArCrArGdAdA”: 36.8%; for “sense rCrUrGrGrArGrUrCrCrCrGrCrUrUrUrGrArCrUdTdT / antisense rArGrUrCrArArArGrCrGrGrGrArCrUrCrCrArGdTdT”: 72%.
Take “sense rUrGrArArGrArArCrArArGrArGrGrArArArGrAdTdT / antisense rUrCrUrUrUrCrCrUrCrUrUrGrUrUrCrUrUrCrAdGdG”: the normalised inhibition (eCFP-eYFP dual reporter) in the series with UBE2E3 was 89.3%.
On the same count and under the same terms, the same measure for “sense rGrCrGrArGrArCrCrCrArGrCrCrGrCrUrCrCrAdTdT / antisense rUrGrGrArGrCrGrGrCrUrGrGrGrUrCrUrCrGrCdTdG”: 69.2%.
On the same count and under the same terms, in the case of “sense rUrGrCrGrGrArUrCrCrUrCrUrGrGrUrUrGrGrAdTdT / antisense rUrCrCrArArCrCrArGrArGrGrArUrCrCrGrCrAdGdG” it was 75.8%.
In the case of “sense rArArArArGrCrCrArGrArGrGrArArCrGrCrUrGdTdT / antisense rCrArGrCrGrUrUrCrCrUrCrUrGrGrCrUrUrUrUdCdA”, the normalised inhibition (eCFP-eYFP dual reporter) in the series with UBE2G1 was 32.6%.
The same measure, in the same setting: the same measure for “sense rArGrArUrArGrArArArUrGrGrArGrArArUrUrUdTdT / antisense rArArArUrUrCrUrCrCrArUrUrUrCrUrArUrCrUdTdC”: 102%.
On the same count and under the same terms, the same measure for “sense rUrGrArUrUrArGrUrGrUrCrArUrUrUrCrUrArUdTdT / antisense rArUrArGrArArArUrGrArCrArCrUrArArUrCrAdTdG”: 78.5%.
